In ChEMBL document CHEMBL1147357, “Antihypertensive Activity of Corilagin and Chebulinic Acid, Tannins from Lumnitzera, racemosa” (1993) one finds Activity and ED50 data, which are given here for ten compounds.

Structures are written as SMILES. The source made the active and inactive calls. The calls are words filed in the database; no cut-off is given here.

Assay [1] concerns Rattus norvegicus. Description: Antihypertensive activity in conscious SHR rat assessed as lowering of tail arterial mean blood pressure at 5 mg/kg during 10 to 130 mins by indirect tail-cuff method. Type of assay: functional, organism-based. Further details: dose 5 mg/kg. Conditions: Artery.
Assay [2] deals with Rattus norvegicus. The experiment in a line: Antihypertensive activity in iv dosed conscious SHR rat assessed as maximal change in tail arterial blood pressure measured at 10 mins interval by dose-response curve analysis. Type of assay: functional. To be noted: Artery.
The test system of assay [3] is Rattus norvegicus. The experiment in a line: Induction of hypotensive effect in conscious normotensive WKY rat. Type of assay: functional, organism-based.
For assay [4], the system named is Rattus norvegicus. Description: Antihypertensive activity in iv dosed conscious normotensive WKY rat assessed as maximal change in tail arterial blood pressure measured at 10 mins interval by dose-response curve analysis. Conditions: Artery. The format is functional.
For assay [5], the system named is Rattus norvegicus. Description: Antihypertensive activity in conscious SHR rat assessed as maximal change in tail arterial blood pressure at 20 mg/kg, iv measured at 10 mins interval relative to blood pressure obtained at preinjection. Type of assay: functional, Artery.
For assay [6], the system named is Rattus norvegicus. The experiment in a line: Antihypertensive activity in conscious SHR rat assessed as maximal change in tail arterial blood pressure at 50 mg/kg, iv measured at 10 mins interval relative to blood pressure obtained at preinjection. Type of assay: functional, Artery.
Assay [7] deals with Rattus norvegicus. The experiment in a line: Antihypertensive activity in conscious SHR rat assessed as maximal change in tail arterial blood pressure at 10 mg/kg, iv measured at 10 mins interval relative to blood pressure obtained at preinjection. The format is functional, Artery.
Assay [8] relates to Rattus norvegicus. The experiment in a line: Induction of […] activity in conscious normotensive WKY rat assessed as maximal change in tail arterial blood pressure at 15 mg/kg, iv measured at 10 mins interval relative to blood pressure obtained at preinjection. Type of assay: functional, organism-based. Further details: dose 15 mg/kg.
Assay [9] deals with Rattus norvegicus. Description: Antihypertensive activity in conscious SHR rat assessed as maximal change in tail arterial blood pressure at 15 mg/kg, iv measured at 10 mins interval relative to blood pressure obtained at preinjection. Type of assay: functional, Artery.

The ED50 is the dose at which the effect has come halfway, by size or by number of responders. For the compound `O=C1OC[C@H]2OC(=O)c3cc(O)c(O)c(O)c3-c3c(O)c(O)c(O)c4c3C(=O)O[C@H]([C@H]3OC(=O)c5c-4c(O)c(O)c(O)c5[C@H]3O)[C@@H]2OC(=O)c2cc(O)c(O)c(O)c2-c2c1cc(O)c(O)c2O` [CASTALAGIN], the result in the assay with Rattus norvegicus [1] and with Rattus norvegicus [3] was Active. In addition, the Activity result in the assay on Rattus norvegicus [2] is “Dose-dependent effect”; in the assay with Rattus norvegicus [5] it was -49.6 mmHg. In addition, the ED50 with Rattus norvegicus [2] came to 6.3 mg/kg; in the assay with Rattus norvegicus [4], 6.4 mg/kg.

As to `O=C1O[C@@H]2[C@@H](OC(=O)c3cc(O)c(O)c(O)c3-c3c1cc(O)c(O)c3O)[C@H](O)[C@@H](CO)O[C@H]2O`, the Activity with Rattus norvegicus [6] is reported as -5.5 mmHg.

Turning to `O=C(OC[C@H]1O[C@@H](O)[C@H](OC(=O)c2cc(O)c(O)c(O)c2)[C@@H](OC(=O)c2cc(O)c(O)c(O)c2)[C@@H]1OC(=O)c1cc(O)c(O)c(O)c1)c1cc(O)c(O)c(O)c1`, in the assay on Rattus norvegicus [6], the Activity is -5.2 mmHg.

Take `O=C(OC[C@H]1O[C@@H](OC(=O)c2cc(O)c(O)c(O)c2)[C@H](OC(=O)c2cc(O)c(O)c(O)c2)[C@@H](OC(=O)c2cc(O)c(O)c(O)c2)[C@@H]1OC(=O)c1cc(O)c(O)c(O)c1)c1cc(O)c(O)c(O)c1` [PENTAGALLOYL GLUCOSE]: the Activity in the assay with Rattus norvegicus [6] was -7.1 mmHg.

Consider `O=C(O)C[C@H]1C(=O)O[C@H]2[C@H](OC(=O)c3cc(O)c(O)c(O)c3)[C@@H](OC(=O)c3cc(O)c(O)c4c3[C@H]1[C@H](O)C(=O)O4)[C@H](OC(=O)c1cc(O)c(O)c(O)c1)O[C@@H]2COC(=O)c1cc(O)c(O)c(O)c1` [CHEBULINIC ACID], for which the figures for the Activity in the assay with Rattus norvegicus [7] and in the assay with Rattus norvegicus [2] were -76.9 mmHg and “Dose-dependent effect”, respectively. The outcome in the assay on Rattus norvegicus [1] and in the assay on Rattus norvegicus [3] was Active. In addition, the ED50 in the assay on Rattus norvegicus [2] turned out to be 3.2 mg/kg; with Rattus norvegicus [4] it was 3.4 mg/kg.

In the case of `O=C(O[C@@H]1[C@@H](OC(=O)c2cc(O)c(O)c(O)c2)[C@H](O)[C@@H](CO)O[C@H]1O)c1cc(O)c(O)c(O)c1`, the Activity in the assay on Rattus norvegicus [6] was found to be 4.52 mmHg.

Consider `O=C(O)C[C@@H]1C(=O)O[C@H]2[C@@H]3OC(=O)c4cc(O)c(O)c(O)c4-c4c(cc(O)c(O)c4O)C(=O)OC[C@H]2O[C@@H](OC(=O)c2cc(O)c(O)c(O)c2)[C@@H]3OC(=O)c2cc(O)c(O)c3c2[C@H]1[C@H](O)C(=O)O3` [CHEBULAGIC ACID], for which the Activity with Rattus norvegicus [6] is given as -6.5 mmHg.

Regarding `O=C(O[C@@H]1O[C@@H]2COC(=O)c3cc(O)c(O)c(O)c3-c3c(cc(O)c(O)c3O)C(=O)O[C@H]([C@H]1O)[C@@H]2O)c1cc(O)c(O)c(O)c1` [CORILAGIN], the outcome with Rattus norvegicus [1] and in the assay on Rattus norvegicus [3] was Active. Further, the figures for the Activity result in the assay with Rattus norvegicus [2] and with Rattus norvegicus [5] were “Dose-dependent effect” and -52.6 mmHg, respectively. Moreover, the results for the ED50 in the assay with Rattus norvegicus [2] and in the assay with Rattus norvegicus [4] were 6.7 mg/kg and 6.5 mg/kg, respectively.

On to `O=C1O[C@@H]2[C@@H](OC(=O)c3cc(O)c(O)c(O)c3-c3c1cc(O)c(O)c3O)[C@H](O)O[C@@H]1COC(=O)c3cc(O)c(O)c(O)c3-c3c(O)c(O)c4oc(=O)c5c(c(O)c(O)c6oc(=O)c3c4c65)-c3c(cc(O)c(O)c3O)C(=O)O[C@@H]21` [PUNICALAGIN], for which the result in the assay on Rattus norvegicus [8] was Active. In addition, the ED50 in the assay with Rattus norvegicus [2] worked out at 5.4 mg/kg. Also, in the assay with Rattus norvegicus [9], the Activity was -63.4 mmHg.

In the case of `O=C(OC[C@H]1O[C@@H](OC(=O)c2cc(O)c(O)c(O)c2)[C@H](OC(=O)c2cc(O)c(O)c(O)c2)[C@@H](OC(=O)c2cc(O)c(O)c(O)c2)[C@@H]1O)c1cc(O)c(O)c(O)c1`, the Activity in the assay with Rattus norvegicus [6] is 2.3 mmHg.
